# Assays:
# [1] = system: B16; assay: Effective dose of perorally administered compound against B16 melanoma BL6 cells implanted into mice; type: functional; details: Mus musculus, B16, po
# [2] = system: B16; assay: Effective dose of intravenously administered compound against B16 melanoma BL6 cells implanted into mice; type: functional; details: Mus musculus, B16, iv
# [3] = system: PC-6; assay: Concentration required to inhibit human PC-6 cell line growth by 50% at 72 hr continuous exposure; type: functional; details: PC-6, 72 h
# [4] = system: PC-6; assay: Concentration required to inhibit human PC-6/VCR29-9 cell line growth by 50% at 72 hr exposure; type: functional; details: PC-6, 72 h
# [5] = system: P388; assay: Concentration required to inhibit mouse P388 cell line growth by 50% at 72 hr continuous exposure; type: functional; details: P388, 72 h
# [6] = system: PC-6; assay: Concentration required to inhibit human PC-6/VP1-1 cell line growth by 50% at 72 hr exposure; type: functional; details: PC-6, 72 h
# [7] = system: PC-12; assay: Concentration required to inhibit human PC-12 cell line growth by 50% at 72 hr continuous exposure; type: functional; details: PC-12, 72 h
# [8] = system: PC-6; assay: Concentration that inhibited the growth of PC-6/VCR29-9 cells by 50% at 72 hr continuous exposure; type: functional; details: Homo sapiens, PC-6, 72 h
# [9] = system: PC-6; assay: Concentration required to inhibit human PC-6/VCR29-9 cell line growth by 50% at 72 hr of exposure; type: functional; details: PC-6, 72 h
# [10] = system: Mus musculus; assay: Antitumor activity of 17.8 mg/kg of intravenously administered compound against B16 melanoma BL6 cells implanted into mice, value reported is percent compared to control; type: functional; details: route intravenous
# [11] = system: Mus musculus; assay: Maximum rate of body weight loss after intravenous administration of 11.9 mg/kg of compound in mice; type: functional
# [12] = system: Mus musculus; assay: Number of mice died at 7.9 mg/kg of intravenous dose of compound among the total 6 mice tested; type: functional
# [13] = system: Mus musculus; assay: Maximum rate of body weight loss after intravenous administration of 7.9 mg/kg of compound in mice; <0 indicates no weight loss; type: functional
# [14] = system: Mus musculus; assay: Antitumor activity of 26.7 mg/kg of perorally administered compound against B16 melanoma BL6 cells implanted into mice, value reported is percent compared to control; type: functional; details: route oral
# [15] = system: Mus musculus; assay: Maximum rate of body weight loss after peroral administration of 11.9 mg/kg of compound in mice; <0 indicates no body weight loss; type: functional; details: route oral
# [16] = system: Mus musculus; assay: Number of mice died at 26.7 mg/kg of peroral dose of compound among the total 6 mice tested; type: functional; details: route oral
# [17] = system: Mus musculus; assay: Maximum rate of body weight loss after intravenous administration of 17.8 mg/kg of compound in mice; type: functional
# [18] = system: B16; assay: Antitumor activity of 17.8 mg/kg of perorally administered compound against B16 melanoma BL6 cells implanted into mice, value reported is percent compared to control; type: functional, Mus musculus; details: route oral
# [19] = system: B16; assay: Antitumor activity of 11.9 mg/kg of intravenously administered compound against B16 melanoma BL6 cells implanted into mice, value reported is percent compared to control; type: functional, Mus musculus; details: route intravenous
# [20] = system: Mus musculus; assay: Number of mice died at 17.8 mg/kg of peroral dose among the total 6 mice tested; type: functional; details: route oral
# [21] = system: Mus musculus; assay: Number of mice died at 17.8 mg/kg of intravenous dose among the total 6 mice tested; type: functional
# [22] = system: Mus musculus; assay: Number of mice died at 11.9 mg/kg of peroral dose, among the total 6 mice tested; type: functional; details: route oral
# [23] = system: Mus musculus; assay: Effective dose of perorally administered compound against B16 melanoma BL6 cells implanted into mice; range is 7.9-17.8; type: functional; details: B16, po
# [24] = system: Mus musculus; assay: Number of mice died at 11.9 mg/kg of intravenous dose, among the total 6 mice tested; type: functional
# [25] = system: Mus musculus; assay: Maximum rate of body weight loss after peroral administration of 17.8 mg/kg of compound in mice; type: functional; details: route oral
# [26] = system: Mus musculus; assay: Antitumor activity of 7.9 mg/kg of perorally administered compound against B16 melanoma BL6 cells implanted into mice, value reported is percent compared to control; type: functional; details: route oral
# [27] = system: Mus musculus; assay: Antitumor activity of 7.9 mg/kg of intravenously administered compound against B16 melanoma BL6 cells implanted into mice, value reported is percent compared to control; type: functional; details: route intravenous
# [28] = system: Mus musculus; assay: Maximum rate of body weight loss after peroral administration of 7.9 mg/kg of compound in mice; <0 indicates no body weight loss; type: functional; details: route oral
# [29] = system: Mus musculus; assay: Effective dose of intravenously administered compound against B16 melanoma BL6 cells implanted into mice; range is 7.9-17.8; type: functional; details: B16, iv
# [30] = system: Mus musculus; assay: Number of mice died at 26.7 mg/kg of intravenous dose of compound among the total 6 mice tested; type: functional
# [31] = system: Mus musculus; assay: Number of mice died at 7.9 mg/kg of peroral dose of compound among the total 6 mice tested; type: functional; details: route oral
# [32] = system: Mus musculus; assay: Maximum rate of body weight loss after peroral administration of 26.7 mg/kg of compound in mice; type: functional; details: route oral
# [33] = system: B16; assay: Antitumor activity of 11.9 mg/kg of perorally administered compound against B16 melanoma BL6 cells implanted into mice, value reported is percent compared to control; type: functional, Mus musculus; details: route oral
smiles,measurement,setting,value
CC(=O)O[C@@]12CO[C@@H]1CC[C@@]1(C)[C@@H]3O[C@H](CN4CCOCC4)O[C@@H]3C3=C(C)[C@@H](OC(=O)[C@H](O)[C@@H](NC(=O)OC(C)(C)C)c4ccc(F)cn4)C[C@@](O)([C@@H](OCc4ccccc4)[C@@H]12)C3(C)C,ED50,[1],7.9 mg/kg
same,ED50,[2],3.5 mg/kg
COc1ccc([C@H](NC(=O)OC(C)(C)C)[C@@H](O)C(=O)O[C@H]2C[C@@]3(O)[C@@H](OCc4ccccc4)[C@H]4[C@@](C)(CC[C@H]5OC[C@]54OC(C)=O)[C@@H]4O[C@H](CN5CCOCC5)O[C@@H]4C(=C2C)C3(C)C)nc1,ED50,[1],13.3 mg/kg
same,ED50,[2],5.9 mg/kg
CC(=O)O[C@@]12CO[C@@H]1CC[C@@]1(C)[C@@H]3O[C@H](CNC4CC4)O[C@@H]3C3=C(C)[C@@H](OC(=O)[C@H](O)[C@@H](NC(=O)OC(C)(C)C)c4ccccn4)C[C@@](O)([C@@H](OCc4ccccc4)[C@@H]12)C3(C)C,GI50,[3],0.54 ng/mL
same,GI50,[4],2.22 ng/mL
same,GI50,[5],0.17 ng/mL
same,GI50,[6],49.4 ng/mL
same,GI50,[7],0.3 ng/mL
CC(=O)O[C@@]12CO[C@@H]1CC[C@@]1(C)[C@@H]3O[C@H](CN(C)C)O[C@@H]3C3=C(C)[C@@H](OC(=O)[C@H](O)[C@@H](NC(=O)OC(C)(C)C)c4cncs4)C[C@@](O)([C@@H](OCc4ccccc4)[C@@H]12)C3(C)C,GI50,[3],0.3 ng/mL
same,GI50,[5],0.07 ng/mL
same,GI50,[8],1.63 ng/mL
same,GI50,[6],23.8 ng/mL
same,GI50,[7],0.17 ng/mL
CC(=O)O[C@H]1C(=O)[C@@]2(C)[C@H]([C@H](OCc3ccccc3)[C@]3(O)C[C@H](OC(=O)[C@H](O)[C@@H](NC(=O)c4ccccc4)c4ccccc4)C(C)=C1C3(C)C)[C@]1(OC(C)=O)CO[C@@H]1C[C@@H]2O,GI50,[3],1.27 ng/mL
same,GI50,[5],2.93 ng/mL
same,GI50,[6],1000 ng/mL
same,GI50,[9],455 ng/mL
same,GI50,[7],539 ng/mL
CC(=O)O[C@@]12CO[C@@H]1CC[C@@]1(C)[C@@H]3O[C@H](CN(C)C)O[C@@H]3C3=C(C)[C@@H](OC(=O)[C@H](O)[C@@H](NC(=O)OC(C)(C)C)c4ccccn4)C[C@@](O)([C@@H](OCc4ccccc4)[C@@H]12)C3(C)C,GI50,[3],0.38 ng/mL
same,GI50,[4],4.04 ng/mL
same,IR,[10],97.7%
same,BWLmax,[11],1%
same,Mortality,[12],0
same,BWLmax,[13],<0%
same,IR,[14],97.5%
same,BWLmax,[15],<0%
same,Mortality,[16],1
same,BWLmax,[17],8.6%
same,IR,[18],97%
same,GI50,[5],0.41 ng/mL
same,IR,[19],95%
same,Mortality,[20],0
same,Mortality,[21],0
same,Mortality,[22],0
same,ED50,[23],17.8 mg/kg
same,Mortality,[24],0
same,BWLmax,[25],8.8%
same,GI50,[6],54.2 ng/mL
same,IR,[26],72.8%
same,IR,[27],82.3%
same,BWLmax,[28],<0%
same,ED50,[29],17.8 mg/kg
same,Mortality,[30],6
same,Mortality,[31],0
same,BWLmax,[32],13.1%
same,IR,[33],88.8%
same,GI50,[7],0.74 ng/mL
CNC[C@@H]1O[C@@H]2C3=C(C)[C@@H](OC(=O)[C@H](O)[C@@H](NC(=O)OC(C)(C)C)c4ccccn4)C[C@@](O)([C@@H](OCc4ccccc4)[C@H]4[C@@](C)(CC[C@H]5OC[C@]54OC(C)=O)[C@@H]2O1)C3(C)C,GI50,[3],0.54 ng/mL
same,GI50,[4],43.2 ng/mL
same,GI50,[5],0.6 ng/mL
same,GI50,[6],265 ng/mL
same,GI50,[7],5.82 ng/mL
